Results: US20170348306A1, “METHODS OF TREATING CANCER” (GLAXOSMITHKLINE LLC, priority 2011, published 2017)

Experiments:
Test in all cases: 6 day proliferation assay (assay 1)
Assay type in all cases: cell-based
[1] = tested on: L428; details: Homo sapiens, L-428, 144 h, 6 days, EZH2 Y641S, read-out: Compound A gIC50
Experimental: (§1) Cells were cultured in appropriate medium in flasks to 80-100% confluency. Cells were harvested, counted and plated at a pre-determined optimal seeding density ranging from 50 cells per well to 4000 cells per well depending on the growth characteristics of individual cell lines in 384-well tissue culture plates (Greiner #781090). Plates were then incubated overnight at 37° C., 5% CO2. Cells were treated with compound using a 20 point 1:2 fold dilution scheme with a final concentration of 0.15% DMSO. One column per plate contained cells treated with 0.15% DMSO only, and one column contained no cells to serve as background. Plates were incubated at 37° C., 5% CO2 for 6 days. A time zero (t0) reading was taken on the day of compound addition. To develop the plates, 25 μL of Cell Titer Glo (Promega #G7572) was added to each well and incubated at room temperature for 12 minutes. Luminescence was measured on the Tecan Safire2.
(§2) Data were analyzed using Assay Client software. Dose response curves were generated based on percent of growth compared to t0. Growth IC50 values were calculated using a 4 parameter logistic model.
(§3) In addition, further optimization of the EZH2 inhibition assay

[2] = tested on: SU-DHL-10; details: Homo sapiens, SU-DHL10, 144 h, 6 days, EZH2 Y641F, read-out: Compound A gIC50
Experimental: as §1, §2, §3

[3] = tested on: SU-DHL-4; details: Homo sapiens, 144 h, 6 days, EZH2 Y641S, read-out: Compound A gIC50
Experimental: as §1, §2, §3

[4] = tested on: Pfeiffer; details: Homo sapiens, 144 h, 6 days, EZH2 A677G, read-out: Compound A gIC50
Experimental: as §1, §2, §3

[5] = tested on: Raji; details: Homo sapiens, 144 h, 6 days, EZH2 WT, read-out: Compound A gIC50
Experimental: as §1, §2, §3

[6] = tested on: DB; details: Homo sapiens, 144 h, 6 days, EZH2 Y641N, read-out: Compound A gIC50
Experimental: as §1, §2, §3

[7] = tested on: SKM1; details: Homo sapiens, SKM-1, 144 h, 6 days, EZH2 Y641C, read-out: Compound A gIC50
Experimental: as §1, §2, §3

[8] = tested on: MJ; details: Homo sapiens, 144 h, 6 days, EZH2 WT, read-out: Compound A gIC50
Experimental: as §1, §2, §3

[9] = tested on: RPMI-6666; details: Homo sapiens, 144 h, 6 days, EZH2 WT, read-out: Compound A gIC50
Experimental: as §1, §2, §3

[10] = tested on: HsSullan; details: Homo sapiens, 144 h, 6 days, EZH2 WT, read-out: Compound A gIC50
Experimental: as §1, §2, §3

[11] = tested on: RL; details: Homo sapiens, 144 h, 6 days, EZH2 Y641N, read-out: Compound A gIC50
Experimental: as §1, §2, §3

[12] = tested on: 1A2; details: Homo sapiens, 144 h, 6 days, EZH2 WT, read-out: Compound A gIC50
Experimental: as §1, §2, §3

[13] = tested on: CA46; details: Homo sapiens, 144 h, 6 days, EZH2 WT, read-out: Compound A gIC50
Experimental: as §1, §2, §3

[14] = tested on: JM1; details: Homo sapiens, 144 h, 6 days, EZH2 WT, read-out: Compound A gIC50
Experimental: as §1, §2, §3

[15] = tested on: Ramos; details: Homo sapiens, 144 h, 6 days, EZH2 WT, read-out: Compound A gIC50
Experimental: as §1, §2, §3

[16] = tested on: BC-2; details: Homo sapiens, 144 h, 6 days, EZH2 WT, read-out: Compound A gIC50
Experimental: as §1, §2, §3

[17] = tested on: DG75; details: Homo sapiens, DG-75, 144 h, 6 days, EZH2 WT, read-out: Compound A gIC50
Experimental: as §1, §2, §3

[18] = tested on: Hs445; details: Homo sapiens, Hs 445, 144 h, 6 days, EZH2 WT, read-out: Compound A gIC50
Experimental: as §1, §2, §3

[19] = tested on: NAMALWA; details: Homo sapiens, 144 h, 6 days, EZH2 WT, read-out: Compound A gIC50
Experimental: as §1, §2, §3

[20] = tested on: Toledo; details: Homo sapiens, 144 h, 6 days, EZH2 WT, read-out: Compound A gIC50
Experimental: as §1, §2, §3

[21] = tested on: CROAP2; details: Homo sapiens, CRO-AP2, 144 h, 6 days, EZH2 WT, read-out: Compound A gIC50
Experimental: as §1, §2, §3

[22] = tested on: Farage; details: Homo sapiens, 144 h, 6 days, EZH2 WT, read-out: Compound A gIC50
Experimental: as §1, §2, §3

[23] = tested on: HT; details: Homo sapiens, 144 h, 6 days, EZH2 WT, read-out: Compound A gIC50
Experimental: as §1, §2, §3

[24] = tested on: U937; details: Homo sapiens, U-937, 144 h, 6 days, EZH2 WT, read-out: Compound A gIC50
Experimental: as §1, §2, §3

[25] = tested on: HDMyZ; details: Homo sapiens, 144 h, 6 days, EZH2 WT, read-out: Compound A gIC50
Experimental: as §1, §2, §3

[26] = tested on: DOHH2; details: Homo sapiens, DOHH-2, 144 h, 6 days, EZH2 WT, read-out: Compound A gIC50
Experimental: as §1, §2, §3

[27] = tested on: WSU-DLCL-2; details: Homo sapiens, WSUDLCL2, 144 h, 6 days, EZH2 Y641F, read-out: Compound A gIC50
Experimental: as §1, §2, §3

[28] = tested on: P3HR1; details: Homo sapiens, P3HR-1, 144 h, 6 days, EZH2 WT, read-out: Compound A gIC50
Experimental: as §1, §2, §3

[29] = tested on: Jiyoye; details: Homo sapiens, 144 h, 6 days, EZH2 WT, read-out: Compound A gIC50
Experimental: as §1, §2, §3

[30] = tested on: CROAP5; details: Homo sapiens, CRO-AP5, 144 h, 6 days, EZH2 WT, read-out: Compound A gIC50
Experimental: as §1, §2, §3

[31] = tested on: Daudi; details: Homo sapiens, 144 h, 6 days, EZH2 WT, read-out: Compound A gIC50
Experimental: as §1, §2, §3

[32] = tested on: BC-1; details: Homo sapiens, BC1, 144 h, 6 days, EZH2 WT, read-out: Compound A gIC50
Experimental: as §1, §2, §3

[33] = tested on: SU-DHL-5; details: Homo sapiens, 144 h, 6 days, EZH2 WT, read-out: Compound A gIC50
Experimental: as §1, §2, §3

[34] = tested on: OCI-LY-19; details: Homo sapiens, OCI-LY19, 144 h, 6 days, EZH2 Y641N, read-out: Compound A gIC50
Experimental: as §1, §2, §3

[35] = tested on: RCK8; details: Homo sapiens, 144 h, 6 days, EZH2 WT, read-out: Compound A gIC50
Experimental: as §1, §2, §3

[36] = tested on: REC1; details: Homo sapiens, 144 h, 6 days, EZH2 WT, read-out: Compound A gIC50
Experimental: as §1, §2, §3

[37] = tested on: Karpass422; details: Homo sapiens, 144 h, 6 days, EZH2 Y641N, read-out: Compound A gIC50
Experimental: as §1, §2, §3

[38] = tested on: BC-3; details: Homo sapiens, 144 h, 6 days, EZH2 WT, read-out: Compound A gIC50
Experimental: as §1, §2, §3

IC50 [2]: 0.324 µM | IC50 [3]: 14 µM | IC50 [5]: 6.14 µM | IC50 [7]: 6.16 µM | IC50 [15]: 3.51 µM | IC50 [24]: 7.9 µM | IC50 [31]: 13.4 µM | IC50 [33]: 3.44 µM | IC50 [34]: 4.48 µM | IC50 [37]: 1.32 µM
Compound: CCCc1cc(C)[nH]c(=O)c1CNC(=O)c1cc(-c2ccc(N3CCN(C)CC3)nc2)cc2c1cnn2C(C)C [Compound A, 1-(1-methylethyl)-N-[(6-methyl-2-oxo-4-propyl-1,2-dihydro-3-pyridinyl)methyl]-6-[6-(4-methyl-1-piperazinyl)-3-pyridinyl]-1H-indazole-4-carboxamide]
IC50 [1]: 3.1 µM | IC50 [4]: 0.189 µM | IC50 [6]: 9.5 µM | IC50 [8]: 3.28 µM | IC50 [9]: 3.1 µM | IC50 [10]: 3.94 µM | IC50 [11]: 4.66 µM | IC50 [12]: 9.26 µM | IC50 [13]: 8.63 µM | IC50 [14]: 6.66 µM | IC50 [16]: 2.18 µM | IC50 [17]: 6.23 µM | IC50 [18]: 1.57 µM | IC50 [19]: 6.22 µM | IC50 [20]: 21.8 µM | IC50 [21]: 11.3 µM | IC50 [22]: 4.79 µM | IC50 [23]: 3.71 µM | IC50 [25]: 7.21 µM | IC50 [26]: 6.43 µM | IC50 [27]: 3.1 µM | IC50 [28]: 7.8 µM | IC50 [29]: 2.47 µM | IC50 [30]: 6.16 µM | IC50 [32]: 8.82 µM | IC50 [35]: 5.56 µM | IC50 [36]: 2.91 µM | IC50 [38]: 5.28 µM
